From patent US12213485B2, “Synergistic methods of using benzoxaborole compounds and preservative gases as an antimicrobial for crops” (AGROFRESH INC., priority 2016, dated 2025)

How the values were obtained:
[1] = system: Penicillium expansum (PENIEX) on table grapes; experiment: In vivo disease severity on wound-inoculated table grapes, benzoxaborole and CO2 chamber treatment
Text: (§1) The following experiments were used to determine synergy between benzoxaborole Compounds A, B, and/or C and preservative gases, such as carbon dioxide (CO2) and sulfur dioxide (SO2). Specific rates or any other unique conditions are noted within the corresponding results tables. Each experiment comprised an air-tight 36 liter (L) chamber (Fisher Scientific, P/N: 08-642-23C), fitted with a bulkhead septum port (Swagelok, P/N: SS-400-61, Solon, OH) used for treatment delivery, as well as for monitoring (using needle extraction) carbon dioxide (CO2), sulfur dioxide (SO2), oxygen (O2) or other headspace samples. A variable speed fan (Thermaltake, Mobile Fan II, P/N: A1888, Taipei City, Taiwan) set to low was also used to circulate the headspace atmosphere.
(§2) Similarly, table grape fruits were also tested in vivo. More specifically, 16-20 table grapes per repetition were washed and inoculated with pathogens (as described above for the strawberries). However, an ethanol-sterilized push pin, rather than a T15 screwdriver, was used to wound the stem-end of the grapes. The grapes were inoculated in the wound, and then arranged inside a 1-pint clamshell.
(§3) For treatment, the inoculated agar plates and clamshells containing fruits (e.g., strawberries and grapes) were placed inside a 36 L experimental chamber unit, which was then sealed prior to commencement of compound treatments. The chamber remained sealed throughout the duration of the experiment except for addition of treatment to the chamber, and post-treatment ventilation.
(§4) Benzoxaborole Compound A or Compound B was dissolved in acetone and dispensed onto a 60 mm Whatman #1 filter paper disk using a pipette. The acetone was permitted to evaporate for five minutes before the disk was placed on a watch glass in each chamber.
(§5) A 12% CO2 headspace treatment was then established in the chamber by permitting 10 grams (g) of crushed dry ice placed in a weigh boat in the chamber to evaporate in the sealed chamber. However, the bulkhead port of the chamber was loosened to permit the release of internal pressure. Optionally, a fan was used during the initial hours of treatment (i.e., up to about 6 hours of treatment) to ensure uniform treatment exposure of fruits and plates.
(§6) Untreated controls and CO2 treated chambers contained an acetone-treated disk with similar evaporation for five minutes. CO2 and O2 levels in the chamber were monitored using a handheld gas detector (Dansensor Checkpoint II; P/N 600111, Ringsted, Denmark). Temperature and relative humidity were also monitored within the chamber using data loggers (Onset HOBO; P/N U12-013, Bourne, MA).
(§7) The chamber for all in vitro and in vivo experiments was held at room temperature (i.e., from about 21° C. to about 23° C.) typically for about 3.5 days (i.e., about 84 hours) of treatment exposure. Chambers were then vented. After an additional 2-3 days with the chamber at room temperature, post-treatment radial growth (in mm) of each in vitro pathogen (see Examples 1-7, Tables 1-7) was measured on the inoculated plates using electronic calipers (Mitutoyo, P/N: CD-6-CX, Aurora, IL). In addition, the point of inoculation on fruits was assessed for indication of in vivo disease incidence (e.g., yes or no) and severity of disease incidence (see Examples 8-16, Tables 8-16). Disease severity was rated on a scale ranging from 0 to 4, where “0” indicated no disease severity, “1” indicated minimal disease severity, “2” indicated medium disease severity, “3” indicated high disease severity, and “4” indicated exceptionally high disease severity. […]

[2] = system: Botrytis cinerea (BOTRCI) on table grapes; experiment: as above
Text: as §1, §2, §3, §4, §5, §6, §7

[3] = system: Botrytis cinerea (BOTRCI); experiment: In vitro fungal growth on inoculated agar plates, benzoxaborole and CO2 chamber treatment; assay type: cell-based
Text: as §1
(§8) In vitro and in vivo experiments were performed concurrently in triple replicates (i.e., triplicate) unless otherwise noted. For in vitro experiments, a single 6-well microtiter plate or three, 10-cm petri plates each containing half strength Potato Dextrose Agar were prepared. Each well or plate was inoculated with 1 microliter (μL) of 1×10^5 spores/ml of the appropriate pathogenic spore suspension (e.g., Botrytis cinerea, BOTRCI; Penicillium expansum, PENIEX; Mucor piriformis, MUCOPI; Fusarium sambucinum FUSASA; or Aspergillus brasiliensis, ASPEBR). The inoculated microtiter or petri plates were then sealed with a breathable film (AeraSeal; P/N: B-100, Excel Scientific, Victorville, CA).
as §3, §4, §5, §6, §7

[4] = system: Aspergillus brasiliensis (ASPEBR); experiment: as above; assay type: cell-based
Text: as §1, §8, §3, §4, §5, §6, §7

[5] = system: Botrytis cinerea (BOTRCI) on strawberries; experiment: In vivo disease severity on wound-inoculated strawberries, benzoxaborole and CO2 chamber treatment
Text: as §1
(§9) For in vivo experiments, eight strawberry fruits per repetition were surface sterilized with a 70% ethanol solution. After sterilization, the strawberries were rinsed twice with deionized water. Each strawberry fruit was wounded using a T15 screwdriver tip to a uniform depth of eight mm (8 mm). Each fruit wound was inoculated with 20 μL of 1×10^5 spores/ml pathogen spore suspension of B. cinerea or M. piriformis. The strawberries were then placed with the stem facing downwards inside a 1-pound strawberry clamshell.
as §3, §4, §5, §6, §7

[6] = system: Mucor piriformis (MUCOPI) on strawberries; experiment: as above
Text: as §1, §9, §3, §4, §5, §6, §7

[7] = Table 5, compound 0.14 mg/L + 12% CO2, Colby equation E=x+y−x*y/100
[8] = Table 5, compound 0.14 mg/L + 12% CO2, evaluated 2 days after treatment, 6-well plate, fan first 6 hours, >90% R.H.
[9] = Table 5, compound alone 0.14 mg/L, evaluated 2 days after treatment, 6-well plate, fan first 6 hours, >90% R.H.

Structure (SMILES): OB1OCc2cc(F)ccc21 [Compound A]
- Colby Calculation ([1]; Table 16, compound 0.035 mg/L + 12% CO2, Colby equation E=x+y−x*y/100): 108.2
- Growth (Severity, 0 to 4) Cmpd + 12% CO2 ([1]; Table 16, compound 0.035 mg/L + 12% CO2, evaluated 1 day after treatment, fan continuous): 1.3
- Growth (Severity, 0 to 4) Cmpd ([1]; Table 16, compound alone 0.035 mg/L, evaluated 1 day after treatment, fan continuous): 1.8
- Colby Calculation ([2]; Table 15, compound 0.035 mg/L + 12% CO2, Colby equation E=x+y−x*y/100): 115.2
- Growth (Severity, 0 to 4) Cmpd + 12% CO2 ([2]; Table 15, compound 0.035 mg/L + 12% CO2, evaluated 1 day after treatment, fan continuous): 0.7
- Growth (Severity, 0 to 4) Cmpd ([2]; Table 15, compound alone 0.035 mg/L, evaluated 1 day after treatment, fan continuous): 0.9
- Colby Calculation ([3]; Table 1, compound 0.14 mg/L + 12% CO2, Colby equation E=x+y−x*y/100): 165.4
- Growth (diameter, mm) Cmpd + 12% CO2 ([3]; Table 1, compound 0.14 mg/L + 12% CO2, evaluated 2 days after treatment completion, 6-well microtiter plate, 4 replicates, fan first 6 hours): 0.0 mm
- Growth (diameter, mm) Cmpd ([3]; Table 1, compound alone 0.14 mg/L, evaluated 2 days after treatment completion, 6-well microtiter plate, 4 replicates, fan first 6 hours): 16.3 mm
- Colby Calculation ([3]; Table 3, compound 0.14 mg/L + 12% CO2, Colby equation E=x+y−x*y/100): 101.2
- Growth (diameter, mm) Cmpd + 12% CO2 ([3]; Table 3, compound 0.14 mg/L + 12% CO2, evaluated 2 days after treatment, 6-well microtiter plate, fan first 6 hours, >90% R.H.): 4.5 mm
- Growth (diameter, mm) Cmpd ([3]; Table 3, compound alone 0.14 mg/L, evaluated 2 days after treatment, 6-well microtiter plate, fan first 6 hours, >90% R.H.): 5.5 mm
- Colby Calculation ([3]; Table 4, compound 0.14 mg/L + 12% CO2, Colby equation E=x+y−x*y/100): 104.3
- Growth (diameter, mm) Cmpd + 12% CO2 ([3]; Table 4, compound 0.14 mg/L + 12% CO2, evaluated 2 days after treatment completion, 6-well microtiter plate, fan first 6 hours): 0.0 mm
- Growth (diameter, mm) Cmpd ([3]; Table 4, compound alone 0.14 mg/L, evaluated 2 days after treatment completion, 6-well microtiter plate, fan first 6 hours): 1.5 mm
- Colby Calculation [3, 7]: 102.9
- Growth (diameter, mm) Cmpd + 12% CO2 [3, 8]: 3.0 mm
- Growth (diameter, mm) Cmpd [3, 9]: 3.6 mm
- Colby Calculation ([3]; Table 6, compound 0.14 mg/L + 12% CO2, Colby equation E=x+y−x*y/100): 108.2
- Growth (diameter, mm) Cmpd + 12% CO2 ([3]; Table 6, compound 0.14 mg/L + 12% CO2, evaluated 3 days after treatment, 10 cm petri plates, fan continuous): 6.4 mm
- Growth (diameter, mm) Cmpd ([3]; Table 6, compound alone 0.14 mg/L, evaluated 3 days after treatment, 10 cm petri plates, fan continuous): 13.2 mm
- Colby Calculation [4, 7]: 108.3
- Growth (diameter, mm) Cmpd + 12% CO2 [4, 8]: 0.0 mm
- Growth (diameter, mm) Cmpd [4, 9]: 2.6 mm
- Colby Calculation ([5]; Table 8, compound 0.14 mg/L + 12% CO2, Colby equation E=x+y−x*y/100): 176.2
- Growth (Severity, 0 to 4) Cmpd + 12% CO2 ([5]; Table 8, compound 0.14 mg/L + 12% CO2, evaluated 2 days after treatment, 4 replicates, fan first 6 hours, >90% R.H.): 0.4
- Growth (Severity, 0 to 4) Cmpd ([5]; Table 8, compound alone 0.14 mg/L, evaluated 2 days after treatment, 4 replicates, fan first 6 hours, >90% R.H.): 2.1
- Colby Calculation ([5]; Table 9, compound 0.14 mg/L + 12% CO2, Colby equation E=x+y−x*y/100): 107.6
- Growth (Severity, 0 to 4) Cmpd + 12% CO2 ([5]; Table 9, compound 0.14 mg/L + 12% CO2, evaluated 3 days after treatment, fan first 6 hours, >90% R.H.): 0.8
- Growth (Severity, 0 to 4) Cmpd ([5]; Table 9, compound alone 0.14 mg/L, evaluated 3 days after treatment, fan first 6 hours, >90% R.H.): 1.1
- Colby Calculation ([5]; Table 11, compound 0.14 mg/L + 12% CO2, Colby equation E=x+y−x*y/100): 109.0
- Growth (Severity, 0 to 4) Cmpd + 12% CO2 ([5]; Table 11, compound 0.14 mg/L + 12% CO2, evaluated 2 days after treatment, fan first 6 hours, >90% R.H.): 0.8
- Growth (Severity, 0 to 4) Cmpd ([5]; Table 11, compound alone 0.14 mg/L, evaluated 2 days after treatment, fan first 6 hours, >90% R.H.): 1.4
- Colby Calculation ([5]; Table 12, compound 0.14 mg/L + 12% CO2, Colby equation E=x+y−x*y/100): 107.9
- Growth (Severity, 0 to 4) Cmpd + 12% CO2 ([5]; Table 12, compound 0.14 mg/L + 12% CO2, evaluated 2 days after treatment, fan first 6 hours, >90% R.H.): 0.4
- Growth (Severity, 0 to 4) Cmpd ([5]; Table 12, compound alone 0.14 mg/L, evaluated 2 days after treatment, fan first 6 hours, >90% R.H.): 0.7
- Colby Calculation ([5]; Table 13, compound 0.14 mg/L + 12% CO2, Colby equation E=x+y−x*y/100): 163.4
- Growth (Severity, 0 to 4) Cmpd + 12% CO2 ([5]; Table 13, compound 0.14 mg/L + 12% CO2, evaluated 3 days after treatment, fan run continuously): 1.4
- Growth (Severity, 0 to 4) Cmpd ([5]; Table 13, compound alone 0.14 mg/L, evaluated 3 days after treatment, fan run continuously): 2.4
- Colby Calculation ([5]; Table 14, compound 0.0044 mg/L + 12% CO2, Colby equation E=x+y−x*y/100): 114.8
- Growth (Severity, 0 to 4) Cmpd + 12% CO2 ([5]; Table 14, compound 0.0044 mg/L + 12% CO2, evaluated 3 days after treatment, fan continuous): 3.2
- Colby Calculation ([5]; Table 14, compound 0.0088 mg/L + 12% CO2, Colby equation E=x+y−x*y/100): 502.5
- Growth (Severity, 0 to 4) Cmpd + 12% CO2 ([5]; Table 14, compound 0.0088 mg/L + 12% CO2, evaluated 3 days after treatment, fan continuous): 0.6
- Growth (Severity, 0 to 4) Cmpd ([5]; Table 14, compound alone 0.0044 mg/L, evaluated 3 days after treatment, fan continuous): 3.4
- Growth (Severity, 0 to 4) Cmpd ([5]; Table 14, compound alone 0.0088 mg/L, evaluated 3 days after treatment, fan continuous): 3.3
- Colby Calculation ([6]; Table 10, compound 0.14 mg/L + 12% CO2, Colby equation E=x+y−x*y/100): 106.8
- Growth (Severity, 0 to 4) Cmpd + 12% CO2 ([6]; Table 10, compound 0.14 mg/L + 12% CO2, evaluated 2 days after treatment, fan first 6 hours, >90% R.H.): 0.2
- Growth (Severity, 0 to 4) Cmpd ([6]; Table 10, compound alone 0.14 mg/L, evaluated 2 days after treatment, fan first 6 hours, >90% R.H.): 0.5
